Results: patent US6525022B1, “Receptor specific atrial natriuretic peptides” (Genentech, Inc., priority 1993, dated 2003)
Where a SMILES comes first, the peptide text is derived from it. Bridges are numbered along the chain shown (N, C = ends).

Target: T1, membrane preparation from rhesus monkey lung (Macaca mulatta, UniProt F7HE88)
T1 construct: from tissue; host or cells: rhesus monkey lung membranes
T1 sequence (F7HE88 33-1061): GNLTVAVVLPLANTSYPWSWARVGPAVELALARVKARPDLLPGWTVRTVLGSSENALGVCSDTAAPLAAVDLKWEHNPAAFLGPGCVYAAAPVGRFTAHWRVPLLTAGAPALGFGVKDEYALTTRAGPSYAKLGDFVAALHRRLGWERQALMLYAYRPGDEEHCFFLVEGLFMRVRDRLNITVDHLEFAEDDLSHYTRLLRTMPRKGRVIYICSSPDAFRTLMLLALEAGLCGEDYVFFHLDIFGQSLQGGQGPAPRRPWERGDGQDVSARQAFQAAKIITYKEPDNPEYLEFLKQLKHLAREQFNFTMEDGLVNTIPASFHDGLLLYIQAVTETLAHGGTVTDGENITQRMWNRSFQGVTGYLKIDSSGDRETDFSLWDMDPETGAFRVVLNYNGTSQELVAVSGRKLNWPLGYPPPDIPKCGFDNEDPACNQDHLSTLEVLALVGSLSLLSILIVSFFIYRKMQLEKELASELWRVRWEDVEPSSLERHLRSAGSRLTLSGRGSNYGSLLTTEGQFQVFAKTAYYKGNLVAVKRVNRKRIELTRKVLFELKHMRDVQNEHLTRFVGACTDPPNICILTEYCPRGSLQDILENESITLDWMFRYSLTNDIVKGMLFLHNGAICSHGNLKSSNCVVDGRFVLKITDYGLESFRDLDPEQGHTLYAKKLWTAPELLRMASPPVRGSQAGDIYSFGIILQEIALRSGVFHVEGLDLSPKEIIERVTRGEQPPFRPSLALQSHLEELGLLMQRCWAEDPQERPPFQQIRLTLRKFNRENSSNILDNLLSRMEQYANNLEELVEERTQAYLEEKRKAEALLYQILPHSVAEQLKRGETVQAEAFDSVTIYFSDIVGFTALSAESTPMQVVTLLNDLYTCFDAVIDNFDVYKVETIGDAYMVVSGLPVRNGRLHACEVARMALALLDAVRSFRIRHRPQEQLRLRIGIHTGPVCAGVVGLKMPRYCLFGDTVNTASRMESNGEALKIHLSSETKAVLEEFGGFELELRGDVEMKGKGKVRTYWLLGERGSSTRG
Assay: cGMP stimulation of rhesus lung membranes
Format: biochemical
Settings: FIG. 13, rhesus monkey lung membranes
Description: For preparation of membranes from Rhesus monkey tissues, frozen tissue was placed between parafilm and broken up into pieces by hitting with a hammer. Tissue was transferred to a 125 mL polypropylene tube containing 100 mL of ice-cold buffer #1 (50 mM HEPES, pH 7.4, 1 mM EDTA, 250 mM sucrose, 0.7 mg/mL pepstatin A, 0.5 mg/mL leupeptin, 1 mM PMSF, and 1 mM phosphoramidon). Tissue was homogenized with a Brinkman polytron on a setting of 5 two times for 10 sec. The sample was placed on ice between homogenizations. 11 mL of 30 mM MgCl2/100 mM NaCl containing 1 mM phosphoramidon was added to the homogenate. The homogenate was spun at 400×g for 10 min at 4° C. in a HB-4 rotor. The supernatant was transferred to another tube and spun as above. The supernatant was passed though four layers of sterile gauze then centrifuged at 30,000×g for 20 min at 4° C. in a 60 Ti rotor. The pellet was resuspended in 3-5 mL of buffer #2 (50 mM HEPES, pH 7.4, 0.1 mM EDTA, 5 mM MgCl2, 100 mM NaCl, 0.7 mg/mL pepstatin A, 0.5 mg/mL leupeptin, 1 mM PMSF, and 1 mM phosphoramidon), using a 7 mL Wheaton Dounce with a B pestle. Aliquots were stored at −80° C. […]
Data analysis. The competition binding curves and cGMP production dose responses were analyzed by the four-parameter logistic equation with the KaleidaGraph™ program (Synergy Software, PA) to obtain estimates of the IC50 or EC50 values. […]

| Structure (SMILES) | Potency in stimulation of cGMP production compared with rat ANP |
| --- | --- |
| CC[C@H](C)[C@@H]1NC(=O)[C@H](CCCNC(=N)N)NC(=O)[C@H](CC(=O)O)NC(=O)[C@H]([C@@H](C)CC)NC(=O)[C@H](CO)NC(=O)CNC(=O)[C@H]([C@@H](C)O)NC(=O)[C@H](Cc2ccccc2)NC(=O)[C@@H](NC(=O)[C@H](CO)NC(=O)[C@H](CO)NC(=O)[C@H](CCCNC(=N)N)NC(=O)[C@H](CCCNC(=N)N)NC(=O)[C@H](CC(C)C)NC(=O)[C@H](CO)NC(=O)[C@H](CCCNC(=N)N)NC(=O)[C@@H]2CCCN2C(=O)[C@H](C)NC(=O)[C@@H](N)[C@@H](C)O)CSSC[C@@H](C(=O)N[C@@H](CC(N)=O)C(=O)N[C@@H](CO)C(=O)N[C@@H](Cc2ccccc2)C(=O)N[C@@H](CCCNC(=N)N)C(=O)N[C@@H](Cc2ccc(O)cc2)C(=O)O)NC(=O)CNC(=O)[C@H](CC(C)C)NC(=O)CNC(=O)[C@H](CO)NC(=O)[C@H](CCC(N)=O)NC(=O)[C@H](C)NC(=O)[C@H](CCCNC(=N)N)NC1=O [ANF 76] (H-TAPRSLRRSSCFTGSIDRIRAQSGLGCNSFRY-OH; disulfide 11-27; C-terminus assumed) | more potent than rat ANP |
| CC[C@H](C)[C@@H]1NC(=O)[C@H](CCCNC(=N)N)NC(=O)[C@H](CC(=O)O)NC(=O)[C@H]([C@@H](C)CC)NC(=O)[C@H](CO)NC(=O)CNC(=O)[C@H]([C@@H](C)O)NC(=O)[C@H](Cc2ccccc2)NC[C@@H](NC(=O)[C@H](CO)NC(=O)[C@H](CO)NC(=O)[C@H](CCCNC(=N)N)NC(=O)[C@H](CCCNC(=N)N)NC(=O)[C@H](CC(C)C)NC(=O)[C@@H](N)CO)CSSC[C@@H](C(=O)N[C@@H](CC(N)=O)C(=O)N[C@@H](CO)C(=O)N[C@@H](Cc2ccccc2)C(=O)N[C@@H](CCCNC(=N)N)C(=O)N[C@@H](Cc2ccc(O)cc2)C(=O)O)NC(=O)CNC(=O)[C@H](CC(C)C)NC(=O)CNC(=O)[C@H](CO)NC(=O)[C@H](CCC(N)=O)NC(=O)[C@H](C)NC(=O)[C@H](CCCNC(=N)N)NC1=O [ANF 84] | more potent than rat ANP |
